The record followed here is PubChem BioAssay AID1895 (NMMLSC, 2009).

In this assay the target is MEK5 PB1 domain binding to MEKK2 (MAP3K2) mutant PB1, human. As to the kind of experiment: inhibitors of MEK5 binding to mutant MEKK2, dose response, biochemical, bead multiplex flow cytometry (AID 1895). The conditions noted are these: Bead-based multiplex flow cytometry; for Ki: measured here: Ki for PB1 binding. On the technique in general: A flow cytometer gives signals particle by particle.

The source made the active and inactive calls. The rule behind the calls is not given here.

`C#CCOCCOCCOCCNc1nc(N2CCN(C(=O)[C@H](CCCCN)n3cc([C@@H](N)CC(C)C)nn3)CC2)nc(N2CCN(C(=O)[C@H](Cc3cc4ccccc4[nH]3)n3cc([C@@H](N)Cc4ccc(O)cc4)nn3)CC2)n1`: the EC50 (usually the concentration giving half of the maximal effect) was 11.1 µM.

For `Nc1ccc(Nc2ccccc2N)cc1`, the EC50 is > 30 µM (inactive).

Regarding `CCN1/C(=C/c2ccc3cc(C)ccc3[n+]2C)Sc2ccc3sccc3c21`, the EC50 is > 30 µM (inactive).

As for `c1ccc(CNc2nc(NCc3ccccc3)c3ccccc3n2)cc1`, the EC50 is > 30 µM (inactive).

On to `C#CCOCCOCCOCCNc1nc(N2CCN(C(=O)[C@H](CCC(=O)O)n3cc(C(N)CO)nn3)CC2)nc(N2CCN(C(=O)[C@H](Cc3cc4ccccc4[nH]3)n3cc(C(N)[C@H](C)CC)nn3)CC2)n1` (some centres undefined), for which the EC50 was > 30 µM (inactive).

As to `CCCOc1ccc2c(c1)C(=NN=C(N)N)c1cc(OCCC)ccc1-2`, the EC50 was 9.98 µM.

Take `Cc1cc2ccccc2n1CCNC(=O)c1cccs1`: the EC50 is > 30 µM (inactive).

Take `CN1C(=CC=C2C=C(I)C(=O)C(I)=C2)C(C)(C)c2ccccc21`: the EC50 was 5.14 µM and the Ki (in general, a measure of affinity in units of concentration, obtained from inhibition or displacement) is 5.04 µM.

In the case of `COCc1c(C#N)c(NCCc2ccccc2)nc(C)c1[N+](=O)[O-]`, the EC50 was > 30 µM (inactive).

As for `NC(N)=N/N=C/c1ccc(OCc2ccccc2Cl)cc1`, the EC50 is > 30 µM (inactive).

For the compound `CCc1ccc(Nc2n[n+](-c3ccccc3)c(-c3cc(OC)c(OC)cc3Br)s2)cc1`, the EC50 was 8.3 µM.

As for `CC[C@@H](C)[C@H](CNC)NC[C@@H](Cc1cccc2ccccc12)NCCc1cccc(C(F)(F)F)c1`, the EC50 was > 30 µM (inactive).

With `Cc1cc(N=Nc2ccc(C)c(N=Nc3cc(C)c(N)cc3N)c2)c(N)cc1N`, the EC50 was > 30 µM (inactive).

`CCCCN(CC)CCNC(=O)c1cc2c(-c3ccc(Cl)cc3)nn(C)c2s1`: the half-maximal effective concentration (EC50) is 22.8 µM.

Take `Nc1ccc2nc(-c3ccc(-c4nc5ccc(N)cc5[nH]4)cc3)[nH]c2c1`: the EC50 was > 30 µM (inactive).

For the compound `CCCCCCCCCCCCCCCC[n+]1ccc(/C=N/O)cc1`, the concentration for a half-maximal effect (EC50) is 8.61 µM.

For `CN(c1ccccc1)c1ccc(/C=c2\s/c(=C(/C#N)C(=O)C(C)(C)C)n(Cc3ccco3)c2=O)cc1`, the EC50 result is “inactive” and the Ki was 0.16 µM.

As to `S=C(Nc1cccc(Cl)c1)N(CCCN1CCCC1)Cc1cccn1Cc1ccc(Cl)cc1`, the EC50 is 5.85 µM.

As for `COc1ccc(Cn2c(SCc3ccc(C)cc3)nc3cc(OC)c(OC)cc3c2=N)cc1Cl`, the EC50 was 2.23 µM.

Turning to `Cc1cc2cc(CNC(=O)NC3CCCCC3)ccc2[nH]1`, the EC50 is > 30 µM (inactive).

On to `COc1cc(CNCCc2c[nH]c3ccccc23)ccc1OCc1ccccc1F`, for which the EC50 was > 30 µM (inactive).

Turning to `COc1ccccc1N1CCN(S(=O)(=O)c2ccc(Cl)s2)CC1`, the EC50 is > 30 µM (inactive).

Take `CN1CCN(c2ccc(NC(=O)c3ccc(-c4ccc(Cl)cc4)o3)cc2)CC1`: the EC50 was > 30 µM (inactive).

In the case of `CNC[C@H](CC1CCCCC1)NC[C@H](Cc1ccccc1)NCCC12CC3CC(CC(C3)C1)C2`, the EC50 is > 30 µM (inactive).

Regarding `COc1ccccc1N(CN1C(=O)c2ccccc2C1=O)C(=O)c1cccc(C)c1`, the EC50 was > 30 µM (inactive).

As for `CCCCCc1cc(=O)oc2c(C(CCN3CCCC(C)C3)c3ccc(OC)cc3)c(OC)cc(OC)c12` (centres undefined), the EC50 was 12 µM.

Take `CN(C)c1ccc(NC(=O)CN2CCC(O)(c3ccccc3)CC2)cc1`: the EC50 was > 30 µM (inactive).

With `CCCCCCCCCCCCCCCC[n+]1cccc2ccccc21`, the EC50 is 6.89 µM.

Take `CN(C)CCCN(C(=O)c1ccc2c(c1)CCCC2)c1nc2ccc(Cl)cc2s1`: the EC50 was > 30 µM (inactive).

Take `CCN(CC)CCOC(=O)c1ccc(N/C=C(/C#N)c2nc(-c3ccc4c(c3)OCO4)cs2)cc1`: the EC50 was > 30 µM (inactive).

With `CCN1CCN(CCNC(=O)c2ccc(/C=C3/Sc4ccccc4N(Cc4cccc(C)c4)C3=O)cc2)CC1`, the concentration for a half-maximal effect (EC50) was 10.6 µM.

With `COc1ccc(CSc2n[nH]c(C)n2)cc1[N+](=O)[O-]`, the EC50 is > 30 µM (inactive).

Turning to `CCn1cc(C(=O)O)c(=O)c2cc(F)c(N3CCN(C(=S)NC(=O)c4ccc(Br)cc4)CC3)cc21`, the EC50 is > 30 µM (inactive).

As to `C#CCOCCOCCOCCNc1nc(N2CCN(C(=O)[C@H](Cc3cc4ccccc4[nH]3)n3cc([C@@H](N)C(C)CC)nn3)CC2)nc(N2CCN(C(=O)[C@H](CCCCN)n3cc([C@@H](N)CC(C)C)nn3)CC2)n1` (some centres undefined), the EC50 is 10.3 µM.

Regarding `CCCCCCCCCCOC(=O)Cn1c(COc2cccc(OC)c2)[n+](C)c2ccccc21`, the EC50 was 21.5 µM.

For the compound `CCN1/C(=C/C(C)=C/c2sc3ccccc3[n+]2CC)Sc2ccccc21`, the EC50 was > 30 µM (inactive).

Consider `CCN(CC)CCOC(=O)c1ccc(N/C=C(/C#N)c2nc(-c3ccc(OC)cc3)cs2)cc1`, for which the EC50 is > 30 µM (inactive).

Take `CCN(CC)CCOC(=O)c1ccc(N/C=C(/C#N)c2nc(-c3cc4ccccc4oc3=O)cs2)cc1`: the 50% effective concentration (EC50) is 4.9 µM and the inhibition constant (Ki) stood at 4.8 µM.

Take `Cc1ccc(-c2c[n+](CC(=O)Nc3nc(-c4ccc(F)cc4)cs3)c3n2CCC3)cc1`: the EC50 was > 30 µM (inactive).

With `FC(F)(F)c1cccc(NC(=S)N(CCCN2CCCC2)Cc2cccn2Cc2ccc(Cl)cc2)c1`, the EC50 was 7.06 µM.

Turning to `NC(N)=N/N=C/c1ccc(OCc2ccc(Cl)cc2Cl)cc1`, the EC50 was 2.66 µM.

`COC(=O)C1=C(C)N(Cc2ccccc2)C(=NCc2cccc(C(F)(F)F)c2)N[C@H]1c1cccc(F)c1`: the EC50 was 13.8 µM.

Regarding `CCCCCc1cc(=O)oc2c(C(CCN3CCCC(C)C3)c3ccc4c(c3)OCO4)c(OC)cc(OC)c12` (centres undefined), the EC50 is > 30 µM (inactive).

With `COc1cc2nc(N3CCN(c4cc(C)ccc4C)CC3)nc(N)c2cc1OC`, the EC50 is 5.31 µM.

Turning to `C#CCOCCOCCOCCNc1nc(N2CCN(C(=O)[C@H]([C@@H](C)CC)n3cc([C@@H](N)CO)nn3)CC2)nc(N2CCN(C(=O)[C@H](Cc3cc4ccccc4[nH]3)n3cc([C@@H](N)Cc4ccc(O)cc4)nn3)CC2)n1`, the EC50 entry is “inactive”.

On to `Nc1cc2nc[nH]c2cc1N`, for which the EC50 entry was “inactive” and the Ki came out at 5.77 µM.

`CCCCCCCCCC[N+](C)(C)CC/C=C1/c2ccccc2Sc2ccc(Cl)cc21`: the EC50 was > 30 µM (inactive).

On to `CCN(CC)CCOC(=O)c1ccc(N/C=C(/C#N)c2nc(-c3cccc(OC)c3)cs2)cc1`, for which the EC50 was > 30 µM (inactive).

With `CCN1CCN(Cc2ccc(NC(=O)c3cc(NC(=O)c4cnn(-c5ccccc5)c4N)cc(OC)c3)cc2C(F)(F)F)CC1`, the EC50 was > 30 µM (inactive).

For `Cc1cc2ccccc2n1CCNC(=O)c1ccc(Br)o1`, the EC50 entry is “inactive” and the Ki is 2.87 µM.

For `NC(=NCCCCCCN=C(N)/N=C(\N)Nc1ccc(Cl)cc1)/N=C(\N)Nc1ccc(Cl)cc1`, the EC50 is > 30 µM (inactive).

For the compound `COc1ccc(/C=N/Nc2cc(C)nc3ccc(Br)cc23)cc1`, the EC50 is 8.32 µM.

With `CCN(CC)CCNC(=O)c1ccc(NC(=O)c2cn(-c3ccccc3)nc2-c2cccs2)cc1`, the EC50 is 5.01 µM.

As to `CC(=O)Nc1cccc2c1C(=O)N(c1cccc(C)c1)C2=O`, the EC50 was > 30 µM (inactive).
